Measured values reported in PubChem BioAssay (NCI).
Several values for one entry are separate records, joined by “and”; a condition that tells them apart may be missing. Equal entries are not always repeated.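 A five-concentration, 48-hour dose response in 96-well plates underlies each endpoint, interpolated linearly between surrounding concentrations. Abbreviation: GI50, concentration required for 50% inhibition of growth. TGI is the concentration that stops growth completely.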

Columns and labels:
Assay in all cases: NCI-60 cell line screen, 48 h
HL-60(TB) leukemia = system: HL-60(TB) leukemia
HOP-62 NSCLC = system: HOP-62 NSCLC
HOP-92 NSCLC = system: HOP-92 NSCLC
IGROV1 ovarian = system: IGROV1 ovarian
SK-OV-3 ovarian = system: SK-OV-3 ovarian
KM12 colon = system: KM12 colon
NCI-H226 lung = system: NCI-H226 lung
SF-539 CNS = system: SF-539 CNS
SNB-19 CNS = system: SNB-19 CNS
MCF7 breast = system: MCF7 breast

SMILES	TGI (HL-60(TB) leukemia) [µM]	TGI (HOP-62 NSCLC) [µM]	TGI (HOP-92 NSCLC) [µM]	TGI (IGROV1 ovarian) [µM]	TGI (SK-OV-3 ovarian) [µM]	TGI (KM12 colon) [µM]	TGI (NCI-H226 lung) [µM]	TGI (SF-539 CNS) [µM]	TGI (SNB-19 CNS) [µM]	GI50 (HOP-62 NSCLC) [µM]	GI50 (HOP-92 NSCLC) [µM]	GI50 (IGROV1 ovarian)	GI50 (KM12 colon) [µM]	GI50 (NCI-H226 lung) [µM]	GI50 (SK-OV-3 ovarian) [µM]	GI50 (SNB-19 CNS) [µM]	GI50 (HL-60(TB) leukemia) [µM]	GI50 (MCF7 breast) [µM]	TGI (MCF7 breast) [µM]	GI50 (SF-539 CNS) [µM]
O=C(O)/C(Cl)=C(\Cl)Nc1cccc(C(F)(F)F)c1	> 100	> 100	22.3	> 100	> 100															
CN1CCC23c4c5ccc(O)c4OC2C(=NN=C2CCC4(O)C6Cc7ccc(O)c8c7C4(CCN6C)C2O8)CCC3(O)C1C5 (centres undefined)	> 100	> 100	> 100	> 100	> 100	> 100	> 100	> 100	> 100											
COC(=O)C1=CC(O)CCC1c1ccc(OC)cc1 (centres undefined)	> 100	> 100	> 100	> 100	> 100	> 100	> 100	> 100	> 100											
CCc1ccccc1NC(=O)/C(CC(=O)c1c(C)n([O-])c2ccccc2[n+]1=O)=N\NS(=O)(=O)c1ccc(C)cc1	41.6	> 100		> 100	> 100	> 100	> 100	> 100	> 100											
Cc1ccc(-c2csc(N(C(=O)N3CCN(c4cc5c(cc4F)c(=O)c(C(=O)O)cn5C4CC4)CC3)c3ccccc3)n2)cc1		> 46.3	0.798	> 100	0.787	> 100	> 100		> 60	0.389	0.213	0.338 µM	0.371	0.338	0.252	0.383				
COc1cc(C(=O)C/C(CCC(=O)Nc2ccccc2[N+](=O)[O-])=N\NC(=O)C(N)=O)ccc1O	> 100	> 100	> 100	> 100	> 100	> 100	> 100	> 100	> 100											
O=c1ncc(-c2ccc(C(F)(F)F)cc2)c(NC2CCCCCC2)[nH]1	46.4	36.8		40.2	64.3	44.3	46	30.1	80.8	20.3		19.1 µM	19.9	19.4	27.3	24.2	21	16.2	56.4	15.2
COc1ccc2cc(C(=O)c3ccccc3C(=O)O)ccc2c1	> 100	> 100		> 100	> 100	> 100	> 100		> 100											
COc1ccc(OC)c(/C=C/c2nnc(Nc3ccc(Cl)cc3)o2)c1	> 100	7.68		> 100	7.85	> 100		60.5	> 100	2.71		7.69 µM	17.4		2.79	13.8	> 100	20.7	> 100	11.8
Cc1nc(NC(=S)NC(=O)c2ccc(Cl)c(Cl)c2)sc1C(=O)/C=C/c1ccccc1[N+](=O)[O-]	45.8	47.9	24.2	66.7	49.7	39.3		40.5	46.9											
COC1=CC(=O)c2ccc(C(C)C)cc2C1(C)C1=NC(C)(C)CO1 (centres undefined)	> 100	> 100	> 100	> 100	> 100	> 100	> 100	> 100	> 100											
C[C@H](c1ccc(Cl)cc1N)N1C(=O)c2cc(I)ccc2N(CCCN2CCN(C)CC2)C(=O)[C@@H]1c1ccc(Cl)cc1	3.69			3.12	3.2	3.24	2.86		2.9			1.29 µM	1.78	1.33	1.81	1.52	1.89	1.15	2.41	
CC(C)(Cl)CCC1=C(Cl)C(=O)c2ccccc2C1=O	3.84	17		5.22	17.6	5.32	14.5	4.58	17.1	4.71		2.35 µM	2.28	3.38	5.48	4.22	1.33	1.99	4.05	2.01
COc1ccccc1/C=C/C(=O)c1sc(-c2cccnc2)nc1C	> 100	> 100	> 100	> 100	> 100	> 100	> 100	> 100												
CCCCCCCC[N+](C)(C)Cc1ccc(C[N+](C)(C)CCCCCCCC)cc1	97.6	> 100	88.1	65.1	> 100	> 100	> 100		> 100											
CC(C#N)c1cn(S(=O)(=O)c2ccccc2)c2ccccc12 (centres undefined)	88.1	> 100	53.8	> 100		> 100	> 100	> 100	> 100											
CC(=O)[O-].CC(=O)[O-].[Mn+2].c1ccc(/C(=N\Nc2ccccn2)c2ccccn2)cc1	0.00504	5.69	11	3.59	17.5	13.7	3	0.665	16.7		0.205	0.0271 µM and 0.141 µM			0.0509		0.00173			
O=c1c(O)c(-c2ccc(O)c(O)c2)oc2cc(O)ccc12	> 84.1	> 100	71.8	> 62.8	59.9	31	39.5	26.7	> 100											
CC1=CC2=C(OCO1)C(=O)c1ccccc1C2=O	23.1	15.1	23	27.6	48.9	21.9	30.2	12.8	34											
